Drawing on patent publication US10414763B2 (CANCER RESEARCH TECHNOLOGY LIMITED, priority 2014, dated 2019), this text covers IC50 for 22 compounds.

What is called IC50 is the concentration that inhibits the measured activity by half.

In the experiment the target is T1, full-length human PKCι (Homo sapiens, UniProt P41743).
T1 construct: Recombinant, full-length human PKCι expressed in Sf21 insect cells is also commercially available; purchased EMD Millipore; host or cells: Sf21 insect cells (baculovirus)
T1 sequence (P41743 1-596): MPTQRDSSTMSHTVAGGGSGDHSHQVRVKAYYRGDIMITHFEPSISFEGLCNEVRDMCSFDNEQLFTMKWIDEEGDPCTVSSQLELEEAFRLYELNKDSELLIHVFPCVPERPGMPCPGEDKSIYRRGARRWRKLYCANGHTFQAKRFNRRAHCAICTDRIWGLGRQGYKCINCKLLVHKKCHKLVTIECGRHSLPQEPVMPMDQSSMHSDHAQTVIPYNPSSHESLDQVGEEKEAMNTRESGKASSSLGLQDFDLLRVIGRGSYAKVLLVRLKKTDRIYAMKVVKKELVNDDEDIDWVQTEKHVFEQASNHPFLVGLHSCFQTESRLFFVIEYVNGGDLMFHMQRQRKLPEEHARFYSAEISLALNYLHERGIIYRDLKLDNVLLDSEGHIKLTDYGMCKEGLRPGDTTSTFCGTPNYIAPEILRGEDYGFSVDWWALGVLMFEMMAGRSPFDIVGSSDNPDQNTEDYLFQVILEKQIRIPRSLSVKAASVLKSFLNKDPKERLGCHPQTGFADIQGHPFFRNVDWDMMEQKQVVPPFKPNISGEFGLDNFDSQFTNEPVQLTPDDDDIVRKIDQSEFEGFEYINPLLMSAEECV
Briefly: PKCι IC50 IMAP fluorescence polarisation assay, full-length enzyme, 150 μM ATP. The settings on record: read-out: IC50 in IMAP assay against full length PKCi at 150 μM ATP. The format is biochemical. Summed up:
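IMAP fluorescence polarisation kinase assay: 15 pM baculovirus-expressed human PKCiota with 100 nM FAM-pseudosubstrate peptide and 150 μM ATP, 1 h at 25 °C. IMAP detection reagent then 2 h at 25 °C before FP measurement. Inhibition referenced to no-compound and no-enzyme controls for IC50 fitting.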
(In general: Fluorescence polarisation rises when a labelled molecule tumbles more slowly, as on binding a larger partner.)
Regarding `CC1(C)CNCC[C@@H]1Nc1nc(-c2ccnc(Nc3ncc(F)cc3F)c2)nc2cncc(C3CCC3)c12` [Example 211, {5-Cyclobutyl-2-[2-(3,5-difluoro-pyridin-2-ylamino)-pyridin-4-yl]-pyrido[3,4-d]pyrimidin-4-yl}-((S)-3,3-dimethyl-piperidin-4-yl)-amine], the IC50 is below 100 nM.
For `CCSc1cc2c(-c3nc(N4CCNCC4)c4c(C5CC5)cncc4n3)ccnc2[nH]1` [Example 134, 5-Cyclopropyl-2-(2-ethylsulfanyl-1H-pyrrolo[2,3-b]pyridin-4-yl)-4-piperazin-1-yl-pyrido[3,4-d]pyrimidine], the IC50 is below 100 nM.
As for `C[C@H]1CNCC[C@H]1Nc1nc(-c2ccnc(Nc3nc(F)ccc3F)c2)nc2cncc(C3CCC3)c12` (single isomer, unassigned) [Example 298, {5-Cyclobutyl-2-[2-(3,6-difluoro-pyridin-2-ylamino)-pyridin-4-yl]-pyrido[3,4-d]pyrimidin-4-yl}-((3S,4R)-3-methyl-piperidin-4-yl)-amine or enantiomer], the IC50 is below 100 nM.
The figure for `Cc1nc(Nc2cc(-c3nc(N[C@@H]4CCNC[C@H]4O)c4c(C5CCC5)cncc4n3)ccn2)ccc1C#N` (racemic) [Example 314, 6-{4-[5-Cyclobutyl-4-(rac-(3R,4R)-3-hydroxy-piperidin-4-ylamino)-pyrido[3,4-d]pyrimidin-2-yl]-pyridin-2-ylamino}-2-methyl-nicotinonitrile] is below 100 nM.
Turning to `O[C@H]1CCN(c2nc(-c3ccnc4[nH]c5ccccc5c34)nc3cncc(C4CCC4)c23)C1` [Example 253, (S)-1-[5-Cyclobutyl-2-(9H-pyrido[2,3-b]indol-4-yl)-pyrido[3,4-d]pyrimidin-4-yl]-pyrrolidin-3-ol], the IC50 was 1000 to 10000 nM.
With `CC1(C)CNCC[C@@H]1Nc1nc(-c2ccnc(Nc3cncc(Cl)c3)c2)nc2cncc(C3CC3)c12` [Example 266, 2-[2-[(5-chloro-3-pyridyl)amino]-4-pyridyl]-5-cyclopropyl-N-[(4S)-3,3-dimethyl-4-piperidyl]pyrido[3,4-d]pyrimidin-4-amine] the figure was 100 to 1000 nM; with `OC[C@H]1CNCCN1c1nc(-c2ccnc3[nH]c(C(F)(F)F)cc23)nc2cncc(C3CCC3)c12` [Example 7, {(R)-1-[5-Cyclobutyl-2-(2-trifluoromethyl-1H-pyrrolo[2,3-b]pyridin-4-yl)-pyrido[3,4-d]pyrimidin-4-yl]-piperazin-2-yl}-methanol], 100 to 1000 nM; with `CC1(C)CNCCC1Nc1nc(-c2ccnc3[nH]c(-c4ccc(C(N)=O)cc4)cc23)nc2cncc(C3CC3)c12` (stereo not shown) [Example 156, 4-{4-[5-Cyclopropyl-4-(3,3-dimethyl-piperidin-4-ylamino)-pyrido[3,4-d]pyrimidin-2-yl]-1H-pyrrolo[2,3-b]pyridin-2-yl}-benzamide], below 100 nM.
The figure for `O[C@H]1CNCC[C@H]1Nc1nc(-c2ccnc(Nc3nc(F)cc(F)c3F)c2)nc2cncc(C3CCC3)c12` (racemic) [Example 294, rac-(3S,4R)-4-{5-Cyclobutyl-2-[2-(3,4,6-trifluoro-pyridin-2-ylamino)-pyridin-4-yl]-pyrido[3,4-d]pyrimidin-4-ylamino}-piperidin-3-ol] is below 100 nM; for `O[C@H]1CNCC[C@H]1Nc1nc(-c2ccnc(Nc3ncc(F)cc3F)c2)nc2cncc(C3CCC3)c12` (racemic) [Example 293, rac-(3S,4R)-4-{5-Cyclobutyl-2-[2-(3,5-difluoro-pyridin-2-ylamino)-pyridin-4-yl]-pyrido[3,4-d]pyrimidin-4-ylamino}-piperidin-3-ol] it is below 100 nM.
With `CN(c1nc(-c2ccnc(Nc3nc(C4CC4)cs3)c2)nc2cncc(C3CC3)c12)C1CCNCC1(C)C` (stereo not shown) [Example 53, {5-Cyclopropyl-2-[2-(4-cyclopropyl-thiazol-2-ylamino)-pyridin-4-yl]-pyrido[3,4-d]pyrimidin-4-yl}-(3,3-dimethyl-piperidin-4-yl)-methyl-amine], the IC50 lay in the range of 100 to 1000 nM.
With `CC1(C)CNCC[C@@H]1Nc1nc(-c2ccnc(Nc3cc4ccccn4n3)c2)nc2cncc(C3CC3)c12` [Example 328, 5-Cyclopropyl-N-[(4S)-3,3-dimethyl-4-piperidyl]-2-[2-(pyrazolo[1,5-a]pyridin-2-ylamino)-4-pyridyl]pyrido[3,4-d]pyrimidin-4-amine], the IC50 is below 100 nM.
For the compound `CN(c1nc(-c2ccnc3[nH]c(Sc4ccccc4)cc23)nc2cncc(C3CC3)c12)C1CCNCC1` [Example 15, [5-Cyclopropyl-2-(2-phenylsulfanyl-1H-pyrrolo[2,3-b]pyridin-4-yl)-pyrido[3,4-d]pyrimidin-4-yl]-methyl-piperidin-4-yl amine], the half-maximal inhibitory concentration (IC50) was below 100 nM.
The figure for `c1ccc2c(c1)oc1nccc(-c3nc(NC4CCNCC4)c4c(C5CC5)cncc4n3)c12` [Example 374, 2-(benzofuro[2,3-b]pyridin-4-yl)-5-cyclopropyl-N-(4-piperidyl)pyrido[3,4-d]pyrimidin-4-amine] is 1000 to 10000 nM; for `CC1(c2cc3c(-c4nc(N[C@H]5CC[C@H](N)CC5)c5c(C6CC6)cncc5n4)ccnc3[nH]2)CC1(F)F` (stereo partly drawn) [Example 12, trans-N-{5-Cyclopropyl-2-[2-(2,2 difluoro-1-methyl-cyclopropyl)-1H-pyrrolo[2,3-b]pyridin-4-yl]-pyrido[3,4-d]pyrimidin-4-yl}-cyclohexane-1,4-diamine] it is below 100 nM.
The figure for `C[C@@H]1CNCC[C@H]1Nc1nc(-c2ccnc(Nc3nc4ccccn4n3)c2)nc2cncc(C3CCC3)c12` (racemic) [Example 277, {5-Cyclobutyl-2-[2-([1,2,4]triazolo[1,5-a]pyridin-2-ylamino)-pyridin-4-yl]-pyrido[3,4-d]pyrimidin-4-yl}-(rac-(3R,4R)-3-methyl-piperidin-4-yl)-amine] is below 100 nM; for `CC1(C)CNCCC1Nc1nc(-c2ccnc(NCc3c(F)cccc3F)c2)nc2cncc(C3CCC3)c12` (stereo not shown) [Example 96, {5-Cyclobutyl-2-[2-(2,6-difluoro-benzylamino)-pyridin-4-yl]-pyrido[3,4-d]pyrimidin-4-yl}-(3,3-dimethyl-piperidin-4-yl)-amine] it is below 100 nM.
For `Cc1cnc(F)c(-c2cc3c(-c4nc(N[C@H]5CCNCC5(C)C)c5c(C6CC6)cncc5n4)ccnc3[nH]2)c1` [Example 364, {5-Cyclopropyl-2-[2-(2-fluoro-5-methyl-pyridin-3-yl)-1H-pyrrolo[2,3-b]pyridin-4-yl]-pyrido[3,4-d]pyrimidin-4-yl}-((S)-3,3-dimethyl-piperidin-4-yl)-amine], the IC50 is below 100 nM.
The figure for `CN(c1nc(-c2ccnc(Nc3nc(F)c(F)cc3F)c2)nc2cncc(C3CCC3)c12)C1CCNCC1(C)C` (stereo not shown) [Example 106, {5-Cyclobutyl-2-[2-(3,5,6-trifluoro-pyridin-2-ylamino)-pyridin-4-yl]-pyrido[3,4-d]pyrimidin-4-yl}-(3,3-dimethyl-piperidin-4-yl)-methyl-amine] is below 100 nM; for `c1ccc2c(c1)[nH]c1nccc(-c3nc(N4CC[C@H]5CNC[C@H]54)c4c(C5CCC5)cncc4n3)c12` [Example 10, 4-((S)-5-Cyclobutyl-4 (S)-hexahydro-pyrrolo[3,4-b]pyrrol-1-yl-pyrido[3,4-d]pyrimidin-2-yl)-9H-pyrido[2,3-b]indole] it is below 100 nM.
The figure for `Cc1cc2c(-c3nc(N[C@@H]4CCNCC4(C)C)c4c(C5CC5)cncc4n3)ccnc2[nH]1` [Example 154, [5-Cyclopropyl-2-(2-methyl-1H-pyrrolo[2,3-b]pyridin-4-yl)-pyrido[3,4-d]pyrimidin-4-yl]-((R)-3,3-dimethyl-piperidin-4-yl)-amine] is below 100 nM.
The figure for `CC1(C)CNCCC1Nc1nc(-c2ccnc(Nc3cc(C(F)(F)F)ccn3)c2)nc2cncc(C3CC3)c12` (stereo not shown) [Example 51, {5-Cyclopropyl-2-[2-(4-trifluoromethyl-pyridin-2-ylamino)-pyridin-4-yl]-pyrido[3,4-d]pyrimidin-4-yl}-(3,3-dimethyl-piperidin-4-yl)-amine] is below 100 nM.
